Where “and” joins values, the source holds several entries; their conditions need not be identical. Identical values can stand only once. Like-named read-outs stand apart in the source and are kept apart here.
Assays:
Assay type in all cases: cell-based
[1] = target: T1, rat PAR2 (Rattus norvegicus, UniProt Q63645); assay: Ca^2+ flux assay, inhibition of SLIGRL-NH2 activation in rat KNRK cells
T1 construct: a rat KNRK cell line with endogenous expression of rat PAR2; host or cells: rat KNRK cells
T1 sequence (Q63645 26-397): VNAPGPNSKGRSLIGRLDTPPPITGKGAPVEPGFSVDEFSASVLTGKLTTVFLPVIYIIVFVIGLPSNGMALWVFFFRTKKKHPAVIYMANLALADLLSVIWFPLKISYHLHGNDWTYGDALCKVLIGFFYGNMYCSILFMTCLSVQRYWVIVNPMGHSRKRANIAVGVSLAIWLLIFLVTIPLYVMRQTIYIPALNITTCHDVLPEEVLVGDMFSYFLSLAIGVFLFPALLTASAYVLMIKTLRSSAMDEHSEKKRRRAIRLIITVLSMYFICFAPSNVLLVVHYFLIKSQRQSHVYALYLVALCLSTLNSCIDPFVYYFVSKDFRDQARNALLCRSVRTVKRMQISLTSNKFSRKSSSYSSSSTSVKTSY

[2] = tested on: parental 1321N1 cells; assay: Ca^2+ flux assay, agonist mode, parental 1321N1 cells; parameters: Ca2+ response (Fig 2c), individual replicate values: unit not given here; conditions: control
Description: (§1) Cells were loaded with Fluo-8 NW calcium dye (AAT Bioquest) for 30 min at 37 °C before compounds in Hank’s balanced salt solution (HBSS, ThermoFisher Scientific) with 20 mM HEPES (ThermoFisher Scientific), 0.1% bovine serum albumin (BSA, Sigma) and 0.5% DMSO were added and simultaneously evaluated for changes in intracellular [Ca^2+] using FLIPR TETRA (Molecular Devices) to detect agonism. For each concentration, the difference between the maximum peak Ca^2+ response and baseline response is reported. […] Antagonism experiments were also carried out on 1321N1-PAR2[WT], 1321N1-PAR2[F154A], and 1321N1-PAR2[G157C] as described. Experiments with trypsin in 1321N1-hPAR2 cells were performed in the presence of 1 µM Vorapaxar (Chemtronica) to remove any interference of PAR1 activity. […] Antagonism experiments for CHO-hPAR2 and HT-29 cells were performed in 96-well plates at 30,000 cells/well. Cells were loaded with Fluo-3 AM calcium dye (Sigma-Aldrich) for 60 min at 37 °C in HBSS with 1% FBS, 0.2% pluronic acid, 20 mM HEPES and 2.5 mM probenecid prior to the addition of antagonist. The antagonist was pre-incubated for 60 min at 37 °C followed by the addition of bovine trypsin (30 nM) at EC80. Intracellular [Ca^2+] flux was measured using FLIPR TETRA (Molecular Devices) and the difference between the maximum peak Ca^2+ response and baseline response is reported.

[3] = target: T2, hPAR2 (Homo sapiens, UniProt P55085); assay: Schild and allosteric model analysis of Ca^2+ mobilisation in CHO-hPAR2 cells (2f-LIGRL-NH2 or trypsin); parameters: key to Relative activity: (Emax·EC50')/(Emax'·EC50), Hill slope held at 1; Emax: scale not given here
T2 sequence (P55085 26-397): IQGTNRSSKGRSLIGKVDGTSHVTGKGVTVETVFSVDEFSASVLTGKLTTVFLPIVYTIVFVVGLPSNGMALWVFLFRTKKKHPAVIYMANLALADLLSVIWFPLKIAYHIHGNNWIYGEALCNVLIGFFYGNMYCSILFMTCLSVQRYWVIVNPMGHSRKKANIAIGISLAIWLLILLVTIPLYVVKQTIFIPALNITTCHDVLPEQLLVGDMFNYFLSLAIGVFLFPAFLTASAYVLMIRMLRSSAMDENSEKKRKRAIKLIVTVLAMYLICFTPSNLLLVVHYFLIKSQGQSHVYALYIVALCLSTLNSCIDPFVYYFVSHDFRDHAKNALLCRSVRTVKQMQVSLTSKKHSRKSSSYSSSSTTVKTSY
Description: as §1
(§2) Binding data were analysed using the One site – Fit Ki model in GraphPad Prism 8 (GraphPad Software) to determine binding affinity. Pharmacology in vitro potency data was analysed with a 4-parameter logistic fit using the equation y = Bottom + (Top − Bottom)/[…] where y is the response, x is the 10-logarithm of the drug concentration, Bottom is no response and Top is full response in GraphPad Prism 8 or Genedata Screener (Genedata). pEC50 and pIC50 data are presented as mean ± standard error of the mean (s.e.m.) derived from the number of independent experiments stated. Schild slope analysis was calculated using Graphpad Prism 8 Gaddum/Schild EC50 global fitting (shared model parameters between all data sets) competitive model. […] Schild slope quantifies the shifts in agonist response in the presence of antagonist, a Schild slope of 1 indicates the antagonist is competitive and extra-sum-of-squares F-test (p < 0.05) was used to compare the calculated Schild slope against a hypothetical Schild slope of 1. […] The relative activity was calculated using (EmaxEC50’)/(Emax’EC50) with the Hill slope help constant at 1. EC50’ and Emax’ denote the EC50 and Emax in the absence of allosteric modulator, while EC50 and Emax denote those measured in the presence of allosteric modulator. When the Hill slope = 1, the relative activity plot approaches an asymptote corresponding to the estimate of the γ value.

[4] = target: T2, hPAR2; assay: Ca^2+ flux assay (FLIPR), inhibition of SLIGRL-NH2 activation in 1321N1-hPAR2 cells; conditions: SLIGRL-NH2, 1321N1-hPAR2 cells; mean ± s.e.m.; read-out: Ca^2+ flux (hPAR2) pIC50 (converted)
Description: as §1, §2

[5] = target: T2, hPAR2; assay: IP1 HTRF assay, inhibition of SLIGRL-NH2 in 1321N1-hPAR2 cells; conditions: SLIGRL-NH2, 1321N1-hPAR2 cells; mean ± s.e.m.; read-out: IP1 (hPAR2) pIC50 (converted)
Description: Inhibition of PAR2-induced inositol-1-phosphate (IP1) production was measured in 1321N1-hPAR2 cells using IP-One Gq HTRF assay kit (Cisbio). […] Next, EC80 of SLIGRL-NH2 (70 µM) supplemented with 50 mM LiCl was added and incubated for 60 min at 37 °C. Detection of IP1 production was performed according to the manufacturer’s protocol and HTRF was measured using PHERAstar (BMG LabTech). Data were normalised to [IP1] using a standard curve.
as §2

[6] = target: T2, hPAR2; assay: pERK1/2 HTRF assay, inhibition of SLIGRL-NH2 in U2OS-hPAR2 cells; conditions: SLIGRL-NH2, U2OS-hPAR2; mean ± s.e.m.; read-out: pERK1/2 (hPAR2) pIC50 (converted)
Description: Phosphorylation of ERK1/2 was measured in U2OS-hPAR2 cells using Phospho-ERK1/2 (Thr202/Tyr204) assay kit (64ERKPEH Cisbio) and the 2 plate manufacturer’s protocol with the following modifications. Cells were seeded in McCoy’s 5A media containing 10% FBS at 15,000 cells per well in 384-well plates and incubated overnight at 37 °C, 5% CO2. Antagonist compounds (30 µM–1 nM) were incubated with the cells for 30 min prior to the addition of agonist SLIGRL-NH2 (10 µM) at EC80 and further incubation for 5 min at 37 °C. The supernatant was removed from the wells and lysis buffer was added to the cells and incubated with shaking at room temperature for 30 min. The cell lysate was transferred into a small-volume 384-well plate containing detection antibodies and incubated for 4 h at room temperature in the dark. Plates were read for HTRF signal on PHERAstar (BMG LabTech). In addition, phosphorylation of ERK1/2 was measured in CHO-hPAR2 using AlphaLISA SureFire Ultra pERK1/2 (Thr202/Tyr204) (Perkin Elmer). Cells were seeded at a density of 2000 cells per well in a 384-well proxiplate and incubated overnight. […] After incubation, cell lysis buffer was added with shaking for 30 min. Antibodies and beads were added and incubated for 4 h at room temperature. AlphaLISA signal was measured using a PHERAstar (BMG LabTech).
as §2

[7] = target: T2, hPAR2; assay: β-arrestin-2 recruitment assay, inhibition of SLIGRL-NH2 in U2OS-hPAR2 cells; conditions: SLIGRL-NH2, U2OS-hPAR2; mean ± s.e.m.; read-out: β-arrestin (hPAR2) pIC50 (converted)
Description: β‐Arrestin-2 recruitment was measured in U2OS-hPAR2 cells using the DiscoverX assay kit, according to the manufacturer’s instructions. Briefly, cells were seeded in McCoy’s 5A media containing 10% FBS at 4000 cells per well in 384-well plates and incubated overnight at 37 °C, 5% CO2. Antagonist compounds (30 µM–1 nM) were incubated with the cells for 30 min prior to the addition of agonist SLIGRL-NH2 (10 µM) at EC80 and further incubation for 90 min at 37 °C. Working detection solution (12 µl) was then added to each well, incubated at room temperature in the dark for 60 min and the chemiluminescence signal read on the EnVision microplate reader (Perkin Elmer).
as §2

[8] = target: T2, hPAR2; assay: Ca^2+ flux assay, inhibition of trypsin activation in 1321N1-hPAR2 cells (with 1 µM Vorapaxar); conditions: 1321N1-hPAR2 cells, 1 µM Vorapaxar
[9] = agonist in presence of AZ3451 0.1 µM
[10] = agonist in presence of AZ3451 0.3 µM
[11] = agonist in presence of AZ3451 1 µM
[12] = agonist in presence of AZ3451 3 µM
[13] = agonist in presence of AZ3451 10 µM
[14] = agonist in presence of AZ3451 30 µM, CHO-hPAR2, Ca^2+

**Q.** For CCc1ccc2c(F)ccc(C(O)c3ncc[nH]3)n12 (centres unmarked) [AZ0107], which IC50 [1] is on record?
**A.** 3160 nM

**Q.** CC[C@H](C)[C@H](NC(=O)[C@H](CC1CCCCC1)NC(=O)c1ccno1)C(=O)NCc1cccc(C(=O)N2CCC(CN)CC2)c1 [GB110, reference compound] was tested. Which “Ca2+ response (Fig 2c), individual replicate values” (“Ca2+ response (Fig 2c)” for short) ([2]; [compound],M -4.30103) did it give?
**A.** 2.5854 and 0.2936 and 4.934 and 1.6114

**Q.** What about the “Ca2+ response (Fig 2c)” value ([2]; [compound],M -4.77815) of the same compound?
**A.** 2.299 and 3.846 and -3.259

**Q.** And the “Ca2+ response (Fig 2c)” value ([2]; [compound],M -5.25527)?
**A.** 4.705 and 2.815 and -0.222 and 3.388

**Q.** What about the “Ca2+ response (Fig 2c)” value ([2]; [compound],M -5.73239) of the same compound?
**A.** 1.44 and 1.382

**Q.** What about the “Ca2+ response (Fig 2c)” value ([2]; [compound],M -6.20952) of the same compound?
**A.** 3.273 and 1.783 and 1.382 and 0.4082

**Q.** And the “Ca2+ response (Fig 2c)” value ([2]; [compound],M -6.68664)?
**A.** 2.872 and -6.524

**Q.** And the “Ca2+ response (Fig 2c)” value ([2]; [compound],M -7.16376)?
**A.** -2.227 and 0.1217 and -2.055 and -7.498

**Q.** What about the “Ca2+ response (Fig 2c)” value ([2]; [compound],M -7.64088) of the same compound?
**A.** -2.514 and 3.502 and -1.826 and -6.754

**Q.** What about the “Ca2+ response (Fig 2c)” value ([2]; [compound],M -8.118) of the same compound?
**A.** -3.774 and -3.545 and -0.5085

**Q.** And the “Ca2+ response (Fig 2c)” value ([2]; [compound],M -8.59512)?
**A.** -10.4777 and -3.774 and -5.436 and -3.201

**Q.** What does the source list for Trypsin?
**A.** Emax ([3]; agonist alone, AZ3451 0 µM): 102; Relative activity ([3]; agonist alone, AZ3451 0 µM): 1; EC50 ([3]; agonist alone, AZ3451 0 µM, read-out: EC50): 6 nM; Emax [3, 9]: 96; Relative activity [3, 9]: 0.43; Emax [3, 10]: 90; Relative activity [3, 10]: 0.28; Emax [3, 11]: 90; Relative activity [3, 11]: 0.20; Emax [3, 12]: 89; Relative activity [3, 12]: 0.17; Emax [3, 13]: 74; Relative activity [3, 13]: 0.12; Emax [3, 14]: 61; Relative activity [3, 14]: 0.09

**Q.** Which results are given for C[C@@H](C1CCOCC1)n1c(-c2cc3c(cc2Br)OCO3)nc2cc(C(=O)Nc3ccc(C#N)cc3)ccc21 [AZ7126]?
**A.** IC50 [4]: 7.94 nM; IC50 ([1]; SLIGRL-NH2, rat PAR2 in KNRK cells, mean ± s.e.m., read-out: Ca^2+ flux (rPAR2) pIC50 (converted)): 5.01 nM; IC50 [5]: 79.4 nM; IC50 [6]: 200 nM; IC50 [7]: 63.1 nM; shape of inhibition of trypsin-induced Ca^2+ mobilisation [8]: biphasic inhibition curves

Reference: PMC7747594, “Protease-activated receptor-2 ligands reveal orthosteric and allosteric mechanisms of receptor inhibition” (Communications Biology, 2020)
